In patent US8999942B2, “Polyol modified aminoglycoside-lipid conjugates” (University of Manitoba, priority 2010, dated 2015):

How the values were obtained:
Gram-negative strains = experiment: Gram-negative antibacterial activity; format: cell-based; details: Gram-negatives E. coli and S. maltophilia
Experimental: (§1) All compounds were tested against American Type Culture Collection (ATCC) reference strains as well as clinical isolates from the Canadian Intensive Care Unit (CAN-ICU) study (Zhanel, et al., 2008). […] Antibacterial activity against Gram-positive and Gram-negative microorganisms was performed via broth macrodilution tests using CLSI methodology (Clinical and Laboratory Standards Institute, 2006). The minimum inhibitory concentration (MIC) in μg/mL of the aminoglycoside-derived amphiphilic polycarbamates and polyethers were determined using established methods (Clinical and Laboratory Standards Institute, 2006) and are shown in Tables 1 and 2, respectively.

[1] = test system: E. coli (Gentamicin-resistant) CAN-ICU 61714; experiment: MIC, broth macrodilution (CLSI), gentamicin-resistant E. coli; format: cell-based; details: footnote ATCC 6174 (gentamicin resistant)
Outline: (§2)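 Activity is measured as the lowest inhibitory concentration in μg/mL, obtained through CLSI-standard broth macrodilution with clinical isolates from the CAN-ICU study alongside ATCC strains.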

S. aureus ATCC 29213 = experiment: MIC, broth macrodilution (CLSI), S. aureus ATCC 29213; format: cell-based, Staphylococcus aureus
Outline: as §2

S. pneumoniae ATCC 13883 = experiment: MIC, broth macrodilution (CLSI), S. pneumoniae ATCC 13883; format: cell-based
Outline: as §2

E. coli ATCC 25922 = experiment: MIC, broth macrodilution (CLSI), E. coli ATCC 25922; format: cell-based
Outline: as §2

[2] = test system: E. coli (Amikacin MIC 32) CAN-ICU 63074; experiment: MIC, broth macrodilution (CLSI), E. coli CAN-ICU 63074; format: cell-based
Outline: as §2

[3] = test system: methicillin-resistant Staphylococcus epidermidis (MRSE) CAN-ICU 61589; experiment: MIC, broth macrodilution (CLSI), MRSE; format: cell-based; details: methicillin-resistant S. epidermidis, footnote (ATCC 14990)
Outline: as §2

[4] = test system: Pseudomonas aeruginosa ATCC 27853; experiment: MIC, broth macrodilution (CLSI), P. aeruginosa ATCC 27853; format: cell-based
Outline: as §2

[5] = test system: methicillin-resistant Staphylococcus aureus (MRSA) ATCC 33592; experiment: MIC, broth macrodilution (CLSI), MRSA ATCC 33592; format: cell-based; details: for Minimal Inhibitory Concentration (MIC): MRSA, methicillin-resistant S. aureus ATCC 33592
Outline: as §2

[6] = test system: Streptococcus pneumoniae ATCC 49619; experiment: MIC, broth macrodilution (CLSI), S. pneumoniae ATCC 49619; format: cell-based
Outline: as §2

[7] = test system: S. epidermidis ATCC 14990; experiment: MIC, broth macrodilution (CLSI), S. epidermidis; format: cell-based, Staphylococcus epidermidis; details: footnote ATCC 1490
Outline: as §2

[8] = test system: Acinetobacter baumanni (CAN-ICU 63169); experiment: MIC, broth macrodilution (CLSI), A. baumannii; format: cell-based; details: A. baumannii CAN-ICU 63169
Outline: as §2

[9] = test system: Stenotrophomonas maltophilia (CAN-ICU 62585); experiment: MIC, broth macrodilution (CLSI), S. maltophilia; format: cell-based; details: for Minimal Inhibitory Concentration (MIC): S. maltophilia, footnote CAN-ICU 62584
Outline: as §2

[10] = test system: P. aeruginosa (Gent-R) CAN-ICU 62308; experiment: MIC, broth macrodilution (CLSI), P. aeruginosa CAN-ICU 62308; format: cell-based, Pseudomonas aeruginosa
Outline: as §2

three strains of E. coli = experiment: MIC, three strains of E. coli; format: cell-based
Experimental: as §1

[11] = test system: S. aureus, MRSA, S. epidermidis and MRSE; experiment: MIC, S. aureus, MRSA, S. epidermidis and MRSE; format: cell-based, Staphylococcus aureus, Staphylococcus epidermidis
Experimental: as §1

[12] = test system: Gram-positive and Gram-negative strains tested; experiment: Antibacterial activity, strains tested; format: cell-based
Experimental: as §1

[13] = test system: P. aeruginosa (two strains); experiment: MIC, P. aeruginosa two strains; format: cell-based, Pseudomonas aeruginosa
Experimental: as §1

SMILES	Minimal Inhibitory Concentration (MIC) [1]	Minimal Inhibitory Concentration (MIC) (S. aureus ATCC 29213)	Minimal Inhibitory Concentration (MIC) (S. pneumoniae ATCC 13883)	Minimal Inhibitory Concentration (MIC) (E. coli ATCC 25922)	Minimal Inhibitory Concentration (MIC) [2]	Minimal Inhibitory Concentration (MIC) [3]	Minimal Inhibitory Concentration (MIC) [4]	Minimal Inhibitory Concentration (MIC) [5]	Minimal Inhibitory Concentration (MIC) [6]	Minimal Inhibitory Concentration (MIC) [7]	Minimal Inhibitory Concentration (MIC) [8]	Minimal Inhibitory Concentration (MIC) [9]	Minimal Inhibitory Concentration (MIC) [10]	MIC [11]	other results
CCCCCCNC(=O)OCC1OC(OC2C(NC(=O)C(CCN)OC(=O)NCCCCCC)CC(N)C(OC3OC(CN)C(OC(=O)NCCCCCC)C(OC(=O)NCCCCCC)C3OC(=O)NCCCCCC)C2OC(=O)NCCCCCC)C(OC(=O)NCCCCCC)C(N)C1OC(=O)NCCCCCC.O=C(O)C(F)(F)F.O=C(O)C(F)(F)F.O=C(O)C(F)(F)F.O=C(O)C(F)(F)F (stereo not drawn) [Compound 9]	8 µg/mL	4 µg/mL	>128 µg/mL	4 µg/mL	4 µg/mL	4 µg/mL	64 µg/mL	4 µg/mL	32 µg/mL	4 µg/mL	>128 µg/mL	16 µg/mL	16 µg/mL	–	fold improvement compared to 6 (Gram-negative strains): 8-32 fold
NCC1OC(OC2C(N)CC(N)C(OC(=O)Nc3ccccc3)C2OC2OC(COC(=O)Nc3ccccc3)C(OC3OC(CN)C(OC(=O)Nc4ccccc4)C(OC(=O)Nc4ccccc4)C3N)C2OC(=O)Nc2ccccc2)C(N)C(OC(=O)Nc2ccccc2)C1OC(=O)Nc1ccccc1.O=C(O)C(F)(F)F.O=C(O)C(F)(F)F.O=C(O)C(F)(F)F.O=C(O)C(F)(F)F.O=C(O)C(F)(F)F.O=C(O)C(F)(F)F (stereo not drawn) [Compound 1]	16 µg/mL	1 µg/mL	256 µg/mL	32 µg/mL	16 µg/mL	0.5 µg/mL	256 µg/mL	1 µg/mL	16 µg/mL	0.5 µg/mL	32 µg/mL	4 µg/mL	128 µg/mL	≤ 1 µg/mL	fold enhancement compared to unmodified Neomycin B ([5]; against MRSA): 256 fold; MIC fold reduced compared to Neomycin B sulfate (three strains of E. coli; Neomycin B susceptible E. coli): 2-8 fold; MIC (three strains of E. coli; three strains of E. coli): 16 to 32 µg/mL; MIC fold lower compared to amphiphilic di- and tetracationic lipopeptides (Serrano et al., 2009) ([9]; against S. maltophilia): 32-64 fold; fold increased susceptibility over Neomycin B ([9]; against multidrug-resistant S. maltophilia): over 128 fold
COCC1OC(OC2C(OC)C(N)CC(N)C2OC2OC(CN)C(OC)C(OC)C2N)C(OC)C1OC1OC(CN)C(OC)C(OC)C1N.O=C(O)C(F)(F)F.O=C(O)C(F)(F)F.O=C(O)C(F)(F)F.O=C(O)C(F)(F)F.O=C(O)C(F)(F)F.O=C(O)C(F)(F)F (stereo not drawn) [Compound 14]	>256 µg/mL	>256 µg/mL	>256 µg/mL	>256 µg/mL	>256 µg/mL	>256 µg/mL	>256 µg/mL	>256 µg/mL	>256 µg/mL	256 µg/mL	>256 µg/mL	>256 µg/mL	>256 µg/mL	–	antibacterial activity (in words) [12]: inactivity
NCC1OC(OC2C(N)CC(N)C(OCc3ccccc3)C2OC2OC(COCc3ccccc3)C(OC3OC(CN)C(OCc4ccccc4)C(OCc4ccccc4)C3N)C2OCc2ccccc2)C(N)C(OCc2ccccc2)C1OCc1ccccc1.O=C(O)C(F)(F)F.O=C(O)C(F)(F)F.O=C(O)C(F)(F)F.O=C(O)C(F)(F)F.O=C(O)C(F)(F)F.O=C(O)C(F)(F)F (stereo not drawn) [Compound 11]	16 µg/mL	4 µg/mL	8 µg/mL	8 µg/mL	4 µg/mL	2 µg/mL	32 µg/mL	4 µg/mL	16 µg/mL	2 µg/mL	16 µg/mL	8 µg/mL	64 µg/mL	2 to 4 µg/mL	MIC [13]: 32 to 64 µg/mL; fold decrease in activity compared to polycarbamate analog 1 ([9]; against S. maltophilia): 2 fold
